According to article PMC5055185, “Dual pharmacological inhibition of glutathione and thioredoxin systems synergizes to kill colorectal carcinoma stem cells” (Cancer Medicine, 2016):

Key:
DLD‐1 CRC cell line = test: intracellular ROS, CellROX Deep Red flow cytometry, DLD-1; assay type: cell-based, human; details: treated 1 h (menadione 100 μmol/L, 30 min)
Method: In order to estimate the effect of each inhibitor described above, intracellular reactive oxygen species (ROS) were measured using CellROX™ Deep Red reagent (Molecular Probes). Briefly, cells were seeded on 6‐well plates at 1 × 10^6 cells per well. After cells reached 90% confluence, cells were treated with designated reagents for 1 h. CellROX™ Deep Red reagent was added at a final concentration of 5 μmol/L to the culture medium and then incubated for 30 min at 37°C. Subsequently, the medium was removed and the cells were washed with PBS and detached using 0.25% trypsin‐EDTA. The resulting fluorescence was measured using a FACS Calibur flow cytometer (Becton Dickinson, Franklin Lakes, NJ). Menadione (100 μmol/L) was added 30 min before CellROX™ Deep Red reagent treatment as a reference ROS inducer. […] CD44v9 positivity of CTOS cells was analyzed as follows: Cancer spheroids were dispersed with serial treatments of TrypLE™ (20 min, GIBCO) and Accumax™ (10 min, Innovative Cell Technologies, San Diego, CA). Cell surface CD44v9 was stained with CD44v9 antibody (Cosmobio) as well as PE‐conjugated anti‐rat IgG2a (Becton Dickinson). The fluorescence was measured using a FACS Calibur flow cytometer (Becton Dickinson). […]
One hour after each drug treatment, cells were stained with CellROX DeepRed and intracellular ROS were quantified with FACS. […]

[1] = system: OUMS‐36 embryonic fibroblasts; test: intracellular ROS, CellROX Deep Red flow cytometry, OUMS-36; assay type: cell-based, human; details: treated 1 h (menadione 100 μmol/L, 30 min)
Method: (§1) In order to estimate the effect of each inhibitor described above, intracellular reactive oxygen species (ROS) were measured using CellROX™ Deep Red reagent (Molecular Probes). Briefly, cells were seeded on 6‐well plates at 1 × 10^6 cells per well. After cells reached 90% confluence, cells were treated with designated reagents for 1 h. CellROX™ Deep Red reagent was added at a final concentration of 5 μmol/L to the culture medium and then incubated for 30 min at 37°C. Subsequently, the medium was removed and the cells were washed with PBS and detached using 0.25% trypsin‐EDTA. The resulting fluorescence was measured using a FACS Calibur flow cytometer (Becton Dickinson, Franklin Lakes, NJ). Menadione (100 μmol/L) was added 30 min before CellROX™ Deep Red reagent treatment as a reference ROS inducer. […] CD44v9 positivity of CTOS cells was analyzed as follows: Cancer spheroids were dispersed with serial treatments of TrypLE™ (20 min, GIBCO) and Accumax™ (10 min, Innovative Cell Technologies, San Diego, CA). Cell surface CD44v9 was stained with CD44v9 antibody (Cosmobio) as well as PE‐conjugated anti‐rat IgG2a (Becton Dickinson). The fluorescence was measured using a FACS Calibur flow cytometer (Becton Dickinson). Since CTOSs contained abundant auto‐fluorescent cells, we defined FL2^+FL1^− cells as authentic PE‐positive (Fig. S4). Thus, CD44v9‐positive rate was defined as FL2^+FL1^−/total live cells and CD44v9‐positive fraction was further gated and split between CD44v9^low and CD44v9^high (Fig. S4), to calculate the mean fluorescent intensity of CD44v9^high fraction.
(§2) One hour after each drug treatment, cells were stained with CellROX DeepRed and intracellular ROS were quantified with FACS. Upper: histogram of fluorescent signal is represented. Lower. representative mean fluorescent intensity scores are shown. Note that without drug treatment (Control), intracellular ROS is higher in OUMS36 and TIG3 (embryonic fibroblasts) but lower in DLD-1 and HCT116 (CRC cell lines). ROS in DLD-1 was increased by auranofin. ROS in HCT116 was increased by all the inhibitors tested. […]

[2] = system: TIG‐3 embryonic fibroblasts; test: intracellular ROS, CellROX Deep Red flow cytometry, TIG-3; assay type: cell-based, human; details: treated 1 h (menadione 100 μmol/L, 30 min)
Method: as §1, §2

HCT116 CRC cell line = test: intracellular ROS, CellROX Deep Red flow cytometry, HCT116; assay type: cell-based, human; details: treated 1 h (menadione 100 μmol/L, 30 min)
Method: as §1
One hour after each drug treatment, cells were stained with CellROX DeepRed and intracellular ROS were quantified with FACS. Upper: histogram of fluorescent signal is represented. Lower. representative mean fluorescent intensity scores are shown. Note that without drug treatment (Control), intracellular ROS is higher in OUMS36 and TIG3 (embryonic fibroblasts) but lower in DLD-1 and HCT116 (CRC cell lines). ROS in DLD-1 was increased by auranofin. ROS in HCT116 was increased by all the inhibitors tested. Menadione was used as a reference chemical to increase ROS.

[3] = system: NRF2 target genes in colorectal CTOSs; test: qRT-PCR of NRF2 and TP53 target genes in colorectal CTOSs; assay type: cell-based, human; details: higher dose (auranofin 4, CB83 25, piperlongumine 10 μmol/L) for 24 h
Method: Total RNA was purified using RNAiso Plus (Takara, Osaka, Japan). Reverse transcription was performed using PrimeScript™ with gDNA Eraser (Takara). For quantifying the copy number of each mRNA, we used a StepOne™ Real‐Time PCR System (Applied Biosystems, Waltham, MA) and the Taqman® method. Data were calculated according to the modified delta‐cycle of threshold (ΔCT) method. Normalized Log2 expression was defined as follows: (Log2 expression of a gene of interest) = 30 (arbitrary constant) + (CT of 18S rRNA) − (CT of a gene of interest). We used Log2 parameter for statistical analysis because mRNA expression follows a log‐normal distribution, whereas ΔCT follows normal distribution. A gene‐specific fluorescent probe was designed using a web‐based program (https://qpcr.probefinder.com/organism.jsp). […] Gene‐specific Taqman® probes were purchased from Life Technologies, (Waltham, MA, for Cat#, see Table S1 SpreadSheet2). For PCR, Thunderbird® Probe qPCR mix (Toyobo, Osaka, Japan) was used and the PCR conditions consisted of 40 cycles of two steps (95°C for 15 sec and 60°C for 50 sec).
In order to judge the effect of drug treatments on gene expression, a repeated measures one‐way analysis of variance (ANOVA) was used to determine the variance of Log2 expression from four different groups (untreated, auranofin, CB83, and piperlongumine) using SPSS. Subsequently, the effect of each drug was determined by a paired t test as a post hoc analysis. The P‐values < 0.05 were defined as statistically significant.
In order to estimate NRF2 compensation induced by pharmacological inhibition of TXNRD (auranofin), G6PD (CB83), or GSTπ (piperlongumine), we quantified gene expression of NRF2 target genes. Activation of NRF2 protein was confirmed by NRF2 phosphorylation (Fig. S5A).

CRC cell lines = system: CRC cell lines; design: method as in PMID 25591719; details: cited from earlier work
[4] = system: phosphorylated NRF2 in colorectal CTOSs; test: NRF2 phosphorylation by western blotting, colorectal CTOSs; assay type: cell-based, human; details: 24 hours, Auranofin 2µM, Piperlongumine 5µM, CB83 12.5 µM
Method: From colorectal CTOS, whole‐cell proteins were dissolved with solubilizer (7 mol/L urea, 2 mol/L thiourea, 2% Triton X‐100, Wako) and the entangled genomic DNA was sheared by sonication for 30 min. Procedures for immunoblotting have been described elsewhere 6, 10. Primary antibodies used in this study are as follows: phosphorylated NRF2 from Abcam (#76026) and Histone H3 from Cell Signaling Technologies (#4499, Danvers, MA). Phosphorylation of NRF2 is well correlated with nuclear accumulation in HCCs 6. Representative data are shown in the figures; all experiments were reproduced at least twice with different passage points.
Colorectal CTOSs were incubated with each inhibitor for 24 hours. Whole cell proteins were extracted and each well was loaded with same amount of proteins (40 µg for NRF2 and 10 µg for H3). Phosphorylation of NRF2 was measured by western blotting. Blotting for histone H3 serves as loading control.

## CC1=CC(=O)c2ccccc2C1=O [menadione, Menadione]
DLD‐1 CRC cell line
  intracellular ROS response: increase of ROS
[1]
  intracellular ROS response: no ROS increase
[2]
  intracellular ROS response: no ROS increase
HCT116 CRC cell line
  intracellular ROS response: increase of ROS

## Cc1ccc(C)c(S(=O)(=O)Nc2ccc(O)c3ccccc23)c1 [CB83]
[1]
  intracellular ROS response: no ROS increase
[2]
  intracellular ROS response: no ROS increase
[3]
  TXNRD1 mRNA expression change: up‐regulated
CRC cell lines
  GSH/GSSG ratios: failed to alter
  NADPH/NADP+ ratios: decreased
[4]
  NRF2 phosphorylation: efficiently phosphorylated
HCT116 CRC cell line
  intracellular ROS response: increase of ROS
